Experimental data as given in PubChem BioAssay AID2060904 (Molecular Pharmacology Branch, DTP, NCI, 2025).

System: 349418-098-R-PDC complex spheroid viability
Experiment: Anticancer human tumor 349418-098-R-PDC patient-derived lung adenocarcinoma cell line growth inhibition [RAS]
Conditions: for IC50: curve of first compound; for viability, T/C: stronger effect = lower value; active means viability on the fitted dose curve at most 10% of control; inactive means the rest
Outline: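 Multi-cell-type spheroids: tumor cells plus HUVEC endothelial cells and mesenchymal stem cells. RAS-pathway inhibitors were combined with targeted agents, each dosed in half-log steps down from clinical Cmax, or from 10 microM when Cmax was unknown.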

[1] = second compound 0.000949 µM, first compound 0.000949 µM
[2] = second compound 0.000949 µM, first compound 0.003 µM
[3] = second compound 0.000949 µM, first compound 0.00949 µM
[4] = second compound 0.000949 µM, first compound 0.03 µM
[5] = second compound 0.000949 µM, first compound 0.0949 µM
[6] = second compound 0.000949 µM, first compound 0.3 µM
[7] = second compound 0.003 µM, first compound 0.000949 µM
[8] = second compound 0.003 µM, first compound 0.003 µM
[9] = second compound 0.003 µM, first compound 0.00949 µM
[10] = second compound 0.003 µM, first compound 0.03 µM
[11] = second compound 0.003 µM, first compound 0.0949 µM
[12] = second compound 0.003 µM, first compound 0.3 µM
[13] = second compound 0.00949 µM, first compound 0.000949 µM
[14] = second compound 0.00949 µM, first compound 0.003 µM
[15] = second compound 0.00949 µM, first compound 0.00949 µM
[16] = second compound 0.00949 µM, first compound 0.03 µM
[17] = second compound 0.00949 µM, first compound 0.0949 µM
[18] = second compound 0.00949 µM, first compound 0.3 µM
[19] = second compound 0.03 µM, first compound 0.000949 µM
[20] = second compound 0.03 µM, first compound 0.003 µM
[21] = second compound 0.03 µM, first compound 0.00949 µM
[22] = second compound 0.03 µM, first compound 0.03 µM
[23] = second compound 0.03 µM, first compound 0.0949 µM
[24] = second compound 0.03 µM, first compound 0.3 µM
[25] = second compound 0.0949 µM, first compound 0.000949 µM
[26] = second compound 0.0949 µM, first compound 0.003 µM
[27] = second compound 0.0949 µM, first compound 0.00949 µM
[28] = second compound 0.0949 µM, first compound 0.03 µM
[29] = second compound 0.0949 µM, first compound 0.0949 µM
[30] = second compound 0.0949 µM, first compound 0.3 µM
[31] = second compound 0.3 µM, first compound 0.000949 µM
[32] = second compound 0.3 µM, first compound 0.003 µM
[33] = second compound 0.3 µM, first compound 0.00949 µM
[34] = second compound 0.3 µM, first compound 0.03 µM
[35] = second compound 0.3 µM, first compound 0.0949 µM
[36] = second compound 0.3 µM, first compound 0.3 µM
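Further: spheroids exposed to compound for seven days before viability readout.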

C=CC(=O)N1CCN(c2nc(OCC3CCCN3C)nc3c(F)c(-c4nc(N)cc(C)c4C(F)(F)F)c(Cl)cc23)C(C)C1 (stereo unspecified) + CCn1c(-c2cc(N3CCN(C)CC3)cnc2C(C)OC)c2c3cc(ccc31)-c1csc(n1)CC(NC(=O)C1CC1C)C(=O)N1CCCC(N1)C(=O)OCC(C)(C)C2
inactive: viability, T/C (second compound 0.000949 µM, first compound 0.00316 µM) 117% | viability, T/C (second compound 0.000949 µM, first compound 0.01 µM) 82.4% | viability, T/C (second compound 0.000949 µM, first compound 0.0316 µM) 109% | viability, T/C (second compound 0.000949 µM, first compound 0.1 µM) 101% | viability, T/C (second compound 0.000949 µM, first compound 0.316 µM) 96.8% | viability, T/C (second compound 0.000949 µM, first compound 1 µM) 101% | viability, T/C (second compound 0.003 µM, first compound 0.00316 µM) 90.3% | viability, T/C (second compound 0.003 µM, first compound 0.01 µM) 105% | viability, T/C (second compound 0.003 µM, first compound 0.0316 µM) 96.1% | viability, T/C (second compound 0.003 µM, first compound 0.1 µM) 86.7% | viability, T/C (second compound 0.003 µM, first compound 0.316 µM) 99.9% | viability, T/C (second compound 0.003 µM, first compound 1 µM) 82.2% | viability, T/C (second compound 0.00949 µM, first compound 0.00316 µM) 101% | viability, T/C (second compound 0.00949 µM, first compound 0.01 µM) 97.1% | viability, T/C (second compound 0.00949 µM, first compound 0.0316 µM) 104% | viability, T/C (second compound 0.00949 µM, first compound 0.1 µM) 98.9% | viability, T/C (second compound 0.00949 µM, first compound 0.316 µM) 106% | viability, T/C (second compound 0.00949 µM, first compound 1 µM) 80.7% | viability, T/C (second compound 0.03 µM, first compound 0.00316 µM) 99% | viability, T/C (second compound 0.03 µM, first compound 0.01 µM) 110% | viability, T/C (second compound 0.03 µM, first compound 0.0316 µM) 99.7% | viability, T/C (second compound 0.03 µM, first compound 0.1 µM) 102% | viability, T/C (second compound 0.03 µM, first compound 0.316 µM) 97.4% | viability, T/C (second compound 0.03 µM, first compound 1 µM) 82.3% | viability, T/C (second compound 0.0949 µM, first compound 0.00316 µM) 92.5% | viability, T/C (second compound 0.0949 µM, first compound 0.01 µM) 110% | viability, T/C (second compound 0.0949 µM, first compound 0.0316 µM) 112% | viability, T/C (second compound 0.0949 µM, first compound 0.1 µM) 112% | viability, T/C (second compound 0.0949 µM, first compound 0.316 µM) 113% | viability, T/C (second compound 0.0949 µM, first compound 1 µM) 102% | viability, T/C (second compound 0.3 µM, first compound 0.00316 µM) 110% | viability, T/C (second compound 0.3 µM, first compound 0.01 µM) 94.3% | viability, T/C (second compound 0.3 µM, first compound 0.0316 µM) 105% | viability, T/C (second compound 0.3 µM, first compound 0.1 µM) 109% | viability, T/C (second compound 0.3 µM, first compound 0.316 µM) 99.7% | viability, T/C (second compound 0.3 µM, first compound 1 µM) 90.5%
> 1000 nM: IC50 (second compound 0.000949 µM) | IC50 (second compound 0.003 µM) | IC50 (second compound 0.00949 µM) | IC50 (second compound 0.03 µM) | IC50 (second compound 0.0949 µM) | IC50 (second compound 0.3 µM)

CC1(C)CCC(Nc2ncc(C(F)(F)F)c(-c3c[nH]c4c(P(C)(C)=O)c(C#N)ccc34)n2)CN1 (stereo unspecified) + CCn1c(-c2cc(N3CCN(C)CC3)cnc2C(C)OC)c2c3cc(ccc31)-c1csc(n1)CC(NC(=O)C1CC1C)C(=O)N1CCCC(N1)C(=O)OCC(C)(C)C2
< 0.949 nM: IC50 (second compound 0.00949 µM) | IC50 (second compound 0.0949 µM)
1.05 nM: IC50 (second compound 0.03 µM)
1.09 nM: IC50 (second compound 0.3 µM)
1.07 nM: IC50 (second compound 0.000949 µM)
inactive: viability, T/C [1] 53.6% | viability, T/C [2] 23.1% | viability, T/C [3] 13.3% | viability, T/C [7] 52.2% | viability, T/C [8] 22.1% | viability, T/C [9] 14.4% | viability, T/C [13] 50.2% | viability, T/C [14] 26.2% | viability, T/C [15] 12.5% | viability, T/C [19] 53.3% | viability, T/C [20] 20.5% | viability, T/C [21] 12.5% | viability, T/C [25] 49.1% | viability, T/C [26] 23.5% | viability, T/C [27] 11.1% | viability, T/C [31] 53.6% | viability, T/C [32] 23.7% | viability, T/C [33] 11.2%
active: viability, T/C [4] 9.61% | viability, T/C [5] 8.11% | viability, T/C [6] 6.35% | viability, T/C [10] 8.76% | viability, T/C [11] 7.99% | viability, T/C [12] 7.95% | viability, T/C [16] 9.59% | viability, T/C [17] 9.15% | viability, T/C [18] 8% | viability, T/C [22] 9.78% | viability, T/C [23] 8.18% | viability, T/C [24] 8.17% | viability, T/C [28] 10.2% | viability, T/C [29] 10.9% | viability, T/C [30] 7.97% | viability, T/C [34] 11% | viability, T/C [35] 9.58% | viability, T/C [36] 7.73%
1.02 nM: IC50 (second compound 0.003 µM)

CCc1c2c(nc3ccc(O)cc13)-c1cc3c(c(=O)n1C2)COC(=O)[C@]3(O)CC + CCn1c(-c2cc(N3CCN(C)CC3)cnc2C(C)OC)c2c3cc(ccc31)-c1csc(n1)CC(NC(=O)C1CC1C)C(=O)N1CCCC(N1)C(=O)OCC(C)(C)C2
2.42 nM: IC50 (second compound 0.3 µM)
3.33 nM: IC50 (second compound 0.00949 µM)
2.78 nM: IC50 (second compound 0.0949 µM)
2.48 nM: IC50 (second compound 0.000949 µM)
inactive: viability, T/C [1] 88% | viability, T/C [2] 42.6% | viability, T/C [3] 12.3% | viability, T/C [7] 80.7% | viability, T/C [8] 43.8% | viability, T/C [9] 13.4% | viability, T/C [13] 84.5% | viability, T/C [14] 53.7% | viability, T/C [15] 13.5% | viability, T/C [19] 90.9% | viability, T/C [20] 38% | viability, T/C [21] 11.6% | viability, T/C [25] 88.9% | viability, T/C [26] 47.3% | viability, T/C [27] 17.3% | viability, T/C [31] 87.1% | viability, T/C [32] 41% | viability, T/C [33] 19.7%
active: viability, T/C [4] 6.15% | viability, T/C [5] 2.77% | viability, T/C [6] 1.87% | viability, T/C [10] 5.78% | viability, T/C [11] 2.15% | viability, T/C [12] 1.76% | viability, T/C [16] 6.16% | viability, T/C [17] 3.17% | viability, T/C [18] 1.91% | viability, T/C [22] 5.22% | viability, T/C [23] 2.72% | viability, T/C [24] 2.61% | viability, T/C [28] 6.18% | viability, T/C [29] 2.99% | viability, T/C [30] 1.97% | viability, T/C [34] 7.26% | viability, T/C [35] 3.82% | viability, T/C [36] 1.95%
2.46 nM: IC50 (second compound 0.003 µM)
2.31 nM: IC50 (second compound 0.03 µM)
